Assay results taken from patent publication US8815954B2, “Arginine heteromers for topical administration” (Revance Therapeutics, Inc., priority 2005, dated 2014).

How the values were obtained:
[1] = test system: human forehead skin perfusion; assay: Human forehead tissue perfusion by Laser Doppler Flowmeter after topical application; assay type: in vivo; conditions: lip balm formulation 4.0 mg/ml topical, readings every 30 seconds for 5 minutes from one minute after application (n=55)
Description: Mean and standard error were assessed using Statview (Abacus Concepts, Berkeley, Calif.), with comparisons made using ANOVA repeated measures and significance determined at 95% with post-hoc testing using Fisher PLSD or Scheffe F-test. All procedures and analyses were performed by blinded observers.

murine skin = assay: In vivo cumulative efficacy for topical delivery of arginine across murine skin; morphological assessment of treated skin sections by image analysis; parameters: species or system C57 black 6 female mice; conditions: mice, topical 200 μl once daily for 7 days in Cetaphil cream, dorsal skin harvested 24 hours after last treatment, H&E image analysis
Description: In vivo cumulative efficacy for topical delivery of arginine across murine skin.
The potential for a heteromer of arginine to cross the skin and exert previously characterized benefits related to arginine/NOS activity was evaluated by examining arginine-vitamin E and arginine-palmitate heteromers in an animal model system. While both heteromers improve the lipid solubility relative to arginine alone and should increase transdermal flux, the vitamin E heteromer is also expected to afford additional functional benefits due to its anti-oxidant properties.
1. Arg-palmitate: 0.9996 g of arginine+palmitate were dissolved in 6 ml of jojoba oil (Essential Wholesale, Portland, Oreg.), then diluted with 6 ml (1:1 dilution) of Cetaphil cream.
2. Arg-vitamin E: 0.419 g of arginine+vitamin E were dissolved in 6 ml of deionized H2O then diluted with 6 ml (1:1 dilution) of Cetaphil cream.
Daily-dose topical treatments of metered 200 μl aliquots were prepared for treatments of Arg-palmitate, Arg-vitamin E, or Cetaphil control in 650 μl microcentrifuge tubes.
Animals (C57 black 6 female mice, Charles River Laboratories, Wilmington, Mass.) were anesthetized via inhalation of isoflurane mixed with oxygen and then injected with 0.5 ml rodent anesthetic cocktail (3.75 ml of 100 mg/ml Ketamine, 3.00 ml of 20 mg/ml Xylazine, and 23.25 ml of saline) intraperitoneally. The animals were supplemented with isoflurane as necessary. Treatment groups contained 4 mice each and the control group 3 mice. After being anesthetized, a 2.0 cm×2.0 cm dose site on the dorsum of each mouse was carefully shaved with a hair clipper on the first day of treatment application and animals underwent depilatory treatment in the same dorsal region using a rosin mixture (Surgiwax, Ardell International, Los Angeles, Calif.). Animals were anesthetized via inhalation of isoflurance only during the application of treatments in Cetaphil moisturizing cream (Galderma, Fort Worth, Tex.) and had metered 200 μl doses of the appropriate treatment applied to the cranial portion of dorsal back skin (selected because the mouse cannot reach this region with mouth or limbs). Animals remained under anesthesia for 1-2 minutes while the appropriate treatment was applied into the skin with small metal spatula. […]
High resolution digital images of each section were obtained using a Retiga 1300B camera (QImaging, Burnaby, BC, Canada). Images were analyzed using Image-Pro Plus analysis software (Media Cybernetics, Silver Springs, Md.) to determine morphological assessment and expressed as positive pixels. Mean and standard error were subsequently determined for each group using Statview software (Abacus, Berkeley, Calif.), with analysis of significance at 95% confidence in Wilcoxon signed ranks.

Cc1c(C)c2c(c(C)c1OC(=O)C(N)CCCNC(=N)N)CCC(C)(CCCC(C)CCCC(C)CCCC(C)C)O2 (centres unmarked) [Arg-Vitamin E]
Forehead perfusion, Mean [1]: 8.016 tissue perfusion units
Dermis: dermal thickness, Mean (murine skin): 35779 positive pixels
Epidermis: epidermal thickness, Mean (murine skin): 16475 positive pixels
Fat: fat thickness/density, Mean (murine skin): 21386 positive pixels
Hair: hair length, Mean (murine skin): 18316 positive pixels
